Test results reported in patent US20080221086A1, “Novel Inhibitors of Glutaminyl Cyclase” (PROBIODRUG AG, priority 2006, published 2008).

Target: hQC (Homo sapiens, UniProt Q16769)
Assay: Fluorometric assay of glutaminyl cyclase (QC) inhibition, H-Gln-βNA or H-Gln-AMC substrate
Type: biochemical
Details: read-out: IC50
Description: All compounds were immediately tested regarding their activity as hQC inhibitors.
The purity of the compounds was determined by HPLC-MS. The IC50 value against hQC was measured using the fluorescent assay.
All measurements were performed with a BioAssay Reader HTS-7000Plus for microplates (Perkin Elmer) at 30° C. QC activity was evaluated fluorometrically using H-Gln-βNA. The samples consisted of 0.2 mM fluorogenic substrate, 0.25 U pyroglutamyl aminopeptidase (Unizyme, Hørsholm, Denmark) in 0.2 M Tris/HCl, pH 8.0 containing 20 mM EDTA and an appropriately diluted aliquot of QC in a final volume of 250 μl. Excitation/emission wavelengths were 320/410 nm. The assay reactions were initiated by addition of glutaminyl cyclase. QC activity was determined from a standard curve of β-naphthylamine under assay conditions. One unit is defined as the amount of QC catalyzing the formation of 1 μmol pGlu-βNA from H-Gln-βNA per minute under the described conditions.
In a second fluorometric assay, QC was activity was determined using H-Gln-AMC as substrate. Reactions were carried out at 30° C. utilizing the NOVOStar reader for microplates (BMG labtechnologies). The samples consisted of varying concentrations of the fluorogenic substrate, 0.1 U pyroglutamyl aminopeptidase (Qiagen) in 0.05 M Tris/HCl, pH 8.0 containing 5 mM EDTA and an appropriately diluted aliquot of QC in a final volume of 250 μl. Excitation/emission wavelengths were 380/460 nm. The assay reactions were initiated by addition of glutaminyl cyclase. QC activity was determined from a standard curve of 7-amino-4-methylcoumarin under assay conditions. The kinetic data were evaluated using GraFit software.
For inhibitor testing, the sample composition was the same as described above, except of the putative inhibitory compound added. For a rapid test of QC-inhibition, samples contained 4 mM of the respective inhibitor and a substrate concentration at 1 KM. For detailed investigations of the inhibition and determination of Ki-values, influence of the inhibitor on the auxiliary enzymes was investigated first. In every case, there was no influence on either enzyme detected, thus enabling the reliable determination of the QC inhibition. The inhibitory constant was evaluated by fitting the set of progress curves to the general equation for competitive inhibition using GraFit software.

hQC, sequence (Q16769 29-361): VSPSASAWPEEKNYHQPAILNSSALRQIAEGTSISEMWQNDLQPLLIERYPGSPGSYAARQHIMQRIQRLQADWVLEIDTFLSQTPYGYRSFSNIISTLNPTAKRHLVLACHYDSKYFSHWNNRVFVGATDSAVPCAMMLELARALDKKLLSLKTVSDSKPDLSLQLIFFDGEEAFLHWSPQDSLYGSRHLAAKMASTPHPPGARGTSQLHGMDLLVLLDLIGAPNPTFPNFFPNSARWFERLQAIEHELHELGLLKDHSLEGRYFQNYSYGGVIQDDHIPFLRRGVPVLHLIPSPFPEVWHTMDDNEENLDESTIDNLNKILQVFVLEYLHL

| Structure (SMILES) | IC50 |
| --- | --- |
| O=C(C/N=C1/NC(=O)N(CCCn2ccnc2)C1c1ccccc1)N1CCc2ccccc2C1 (centres unmarked) [Compound 66, 4-2-(3,4-Dihydro-1H-isoquinolin-2-yl)-2-oxo-ethylimino-1-(3-imidazol-1-yl-propyl)-5-phenyl-imidazolidin-2-one] | 4 µM |
| O=C(C/N=C1/NC(=O)N(CCCn2ccnc2)C1C1CCC=CO1)N1CCc2ccccc2C1 (centres unmarked) [Compound 67, 4-2-(3,4-Dihydro-1H-isoquinolin-2-yl)-2-oxo-ethylimino-5-(3,4-dihydro-2H-pyran-2-yl)-1-(3-imidazol-1-yl-propyl)-imidazolidin-2-one] | 4.9 µM |
| O=C(C/N=C1\NC(=O)N(CCCn2ccnc2)C1c1cccc(F)c1F)N1CCc2ccccc2C1 (centres unmarked) [Compound 68, 5-(2,3-Difluoro-phenyl)-4-2-(3,4-dihydro-1H-isoquinolin-2-yl)-2-oxo-ethylimino-1-(3-imidazol-1-yl-propyl)-imidazolidin-2-one] | 4 µM |
| O=C(C/N=C1/NC(=O)N(CCCn2ccnc2)C1c1cc(F)cc(F)c1)N1CCc2ccccc2C1 (centres unmarked) [Compound 69, 5-(3,5-Difluoro-phenyl)-4-2-(3,4-dihydro-1H-isoquinolin-2-yl)-2-oxo-ethylimino-1-(3-imidazol-1-yl-propyl)-imidazolidin-2-one] | 4.9 µM |
| O=C(C/N=C1/NC(=O)N(CCCn2ccnc2)C1c1ccc(Cl)c(F)c1)N1CCc2ccccc2C1 (centres unmarked) [Compound 70, 5-(4-Chloro-3-fluoro-phenyl)-4-2-(3,4-dihydro-1H-isoquinolin-2-yl)-2-oxo-ethylimino-1-(3-imidazol-1-yl-propyl)-imidazolidin-2-one] | 3.1 µM |
| O=C(C/N=C1\NC(=O)N(CCCn2ccnc2)C1c1ccccc1Cl)N1CCc2ccccc2C1 (centres unmarked) [Compound 71, 5-(2-Chloro-phenyl)-4-2-(3,4-dihydro-1H-isoquinolin-2-yl)-2-oxo-ethylimino-1-(3-imidazol-1-yl-propyl)-imidazolidin-2-one] | 4 µM |
| O=C(C/N=C1/NC(=O)N(CCCn2ccnc2)C1CO)N1CCc2ccccc2C1 (centres unmarked) [Compound 72, 4-2-(3,4-Dihydro-1H-isoquinolin-2-yl)-2-oxo-ethylimino-5-hydroxymethyl-1-(3-imidazol-1-yl-propyl)-imidazolidin-2-one] | 8.5 µM |
| O=C(C/N=C1/NC(=O)N(CCCn2ccnc2)C1c1ccco1)N1CCc2ccccc2C1 (centres unmarked) [Compound 73, 4-2-(3,4-Dihydro-1H-isoquinolin-2-yl)-2-oxo-ethylimino-5-furan-2-yl-1-(3-imidazol-1-yl-propyl)-imidazolidin-2-one] | 6.7 µM |
| CCCCC1/C(=N\CC(=O)N2CCc3ccccc3C2)NC(=O)N1CCCn1ccnc1 (centres unmarked) [Compound 74, 5-Butyl-4-2-(3,4-dihydro-1H-isoquinolin-2-yl)-2-oxo-ethylimino-1-(3-imidazol-1-yl-propyl)-imidazolidin-2-one] | 7.6 µM |
| CCC1/C(=N\CC(=O)N2CCc3ccccc3C2)NC(=O)N1CCCn1ccnc1 (centres unmarked) [Compound 75, 4-2-(3,4-Dihydro-1H-isoquinolin-2-yl)-2-oxo-ethylimino-5-ethyl-1-(3-imidazol-1-yl-propyl)-imidazolidin-2-one] | 7.6 µM |
| O=C(C/N=C1\NC(=O)N(CCCn2ccnc2)C1c1ccccc1F)N1CCc2ccccc2C1 (centres unmarked) [Compound 76, 4-2-(3,4-Dihydro-1H-isoquinolin-2-yl)-2-oxo-ethylimino-5-(2-fluoro-phenyl)-1-(3-imidazol-1-yl-propyl)-imidazolidin-2-one] | 5.8 µM |
| O=C(C/N=C1/NC(=O)N(CCCn2ccnc2)C1c1cccc(F)c1)N1CCc2ccccc2C1 (centres unmarked) [Compound 77, 4-2-(3,4-Dihydro-1H-isoquinolin-2-yl)-2-oxo-ethylimino-5-(3-fluoro-phenyl)-1-(3-imidazol-1-yl-propyl)-imidazolidin-2-one] | 4 µM |
| O=C(C/N=C1/NC(=O)N(CCCn2ccnc2)C1c1ccc(F)cc1)N1CCc2ccccc2C1 (centres unmarked) [Compound 78, 4-2-(3,4-Dihydro-1H-isoquinolin-2-yl)-2-oxo-ethylimino-5-(4-fluoro-phenyl)-1-(3-imidazol-1-yl-propyl)-imidazolidin-2-one] | 3.1 µM |
| O=C(C/N=C1/NC(=O)N(CCCn2ccnc2)C1c1ccc(O)cc1)N1CCc2ccccc2C1 (centres unmarked) [Compound 79, 4-2-(3,4-Dihydro-1H-isoquinolin-2-yl)-2-oxo-ethylimino-5-(4-hydroxy-phenyl)-1-(3-imidazol-1-yl-propyl)-imidazolidin-2-one] | 3.1 µM |
| CC1/C(=N/C(c2ccccc2)c2ccccc2)NC(=O)N1CCCn1ccnc1 (centres unmarked) [Compound 80, 4-Benzhydrylimino-1-(3-imidazol-1-yl-propyl)-5-methyl-imidazolidin-2-one] | 9.4 µM |
| O=C1N/C(=N\C(c2ccccc2)c2ccccc2)C(c2ccccc2)N1CCCn1ccnc1 (centres unmarked) [Compound 81, 4-Benzhydrylimino-1-(3-imidazol-1-yl-propyl)-5-phenyl-imidazolidin-2-one] | 5.8 µM |
| O=C1N/C(=N\C(c2ccccc2)c2ccccc2)C(C2CCC=CO2)N1CCCn1ccnc1 (centres unmarked) [Compound 82, 4-Benzhydrylimino-5-(3,4-dihydro-2H-pyran-2-yl)-1-(3-imidazol-1-yl-propyl)-imidazolidin-2-one] | 9.4 µM |
| O=C1N/C(=N\C(c2ccccc2)c2ccccc2)C(c2cccc(F)c2F)N1CCCn1ccnc1 (centres unmarked) [Compound 83, 4-Benzhydrylimino-5-(2,3-difluoro-phenyl)-1-(3-imidazol-1-yl-propyl)-imidazolidin-2-one] | 7.6 µM |
| O=C1N/C(=N\C(c2ccccc2)c2ccccc2)C(c2cc(F)cc(F)c2)N1CCCn1ccnc1 (centres unmarked) [Compound 84, 4-Benzhydrylimino-5-(3,5-difluoro-phenyl)-1-(3-imidazol-1-yl-propyl)-imidazolidin-2-one] | 3.1 µM |
| O=C1N/C(=N\C(c2ccccc2)c2ccccc2)C(CO)N1CCCn1ccnc1 (centres unmarked) [Compound 85, 4-Benzhydrylimino-5-hydroxymethyl-1-(3-imidazol-1-yl-propyl)-imidazolidin-2-one] | 6.7 µM |
| CCCCC1/C(=N/C(c2ccccc2)c2ccccc2)NC(=O)N1CCCn1ccnc1 (centres unmarked) [Compound 86, 4-Benzhydrylimino-5-butyl-1-(3-imidazol-1-yl-propyl)-imidazolidin-2-one] | 5.8 µM |
| O=C1N/C(=N\C(c2ccccc2)c2ccccc2)C(c2ccccc2F)N1CCCn1ccnc1 (centres unmarked) [Compound 87, 4-Benzhydrylimino-5-(2-fluoro-phenyl)-1-(3-imidazol-1-yl-propyl)-imidazolidin-2-one] | 4 µM |
| O=C1N/C(=N\C(c2ccccc2)c2ccccc2)C(c2cccc(F)c2)N1CCCn1ccnc1 (centres unmarked) [Compound 88, 4-Benzhydrylimino-5-(3-fluoro-phenyl)-1-(3-imidazol-1-yl-propyl)-imidazolidin-2-one] | 5.8 µM |
| O=C1N/C(=N\C(c2ccccc2)c2ccccc2)C(c2ccc(O)cc2)N1CCCn1ccnc1 (centres unmarked) [Compound 89, 4-Benzhydrylimino-5-(4-hydroxy-phenyl)-1-(3-imidazol-1-yl-propyl)-imidazolidin-2-one] | 9.4 µM |
| O=C1N/C(=N/Cc2cccnc2)C(c2cc(F)cc(F)c2)N1CCCn1ccnc1 (centres unmarked) [Compound 90, 5-(3,5-Difluoro-phenyl)-1-(3-imidazol-1-yl-propyl)-4-pyridin-3-ylmethylimino-imidazolidin-2-one] | 8.5 µM |
| O=C1N/C(=N/Cc2cccnc2)C(c2cccc(F)c2)N1CCCn1ccnc1 (centres unmarked) [Compound 91, 5-(3-Fluoro-phenyl)-1-(3-imidazol-1-yl-propyl)-4-pyridin-3-ylmethylimino-imidazolidin-2-one] | 8.5 µM |
